Experimental findings from patent US20230089073A1 (Carmot Therapeutics, Inc., priority 2021, published 2023) are described below.

The target of one assay is T1, human GLP-1 receptor (Homo sapiens, UniProt P43220).
T1 construct: expressed in transfected cells
T1 sequence (P43220 24-463): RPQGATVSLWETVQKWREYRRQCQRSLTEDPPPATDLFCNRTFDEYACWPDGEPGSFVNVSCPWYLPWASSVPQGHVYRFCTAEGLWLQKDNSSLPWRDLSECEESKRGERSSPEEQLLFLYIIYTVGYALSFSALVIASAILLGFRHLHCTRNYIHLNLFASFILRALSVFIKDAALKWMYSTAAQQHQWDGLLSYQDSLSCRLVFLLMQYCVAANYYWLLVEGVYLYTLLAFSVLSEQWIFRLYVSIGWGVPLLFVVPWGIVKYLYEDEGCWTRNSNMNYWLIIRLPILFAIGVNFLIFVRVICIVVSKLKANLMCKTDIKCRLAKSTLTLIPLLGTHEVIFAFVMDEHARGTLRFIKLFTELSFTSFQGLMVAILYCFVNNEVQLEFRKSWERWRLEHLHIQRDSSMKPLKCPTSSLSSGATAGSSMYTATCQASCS
The assay is described as follows: GLP-1R cAMP Assay. The assay is classed as cell-based.
Conditions: not given
A digest of the protocol:
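Luminescent enzyme-complementation detection of cAMP, read after cell lysis and overnight incubation, with dose-response curve fitting. Stimulation lasted 30 min, using 20-point triplicate dosing on CHO cells (10,000 per well) stably overexpressing human GLP-1R.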
For `C[C@H]1C[C@@H](Oc2ccnc(COc3ccc(C#N)cc3F)c2)CCN1Cc1nc2ccc(C(=O)O)cc2n1C[C@@H]1CCO1` [Compound 363], the concentration giving a half-maximal response (EC50) is less than 50 nM.

The same assay, now with this note: cAMP accumulation in CHO cells stably overexpressing the human GLP-1 receptor; 30 min treatment; HitHunter cAMP kit; read-out: EC50.
For `C[C@H]1C[C@@H](Oc2ccnc(COc3ccc(C#N)cc3F)n2)CCN1Cc1nc2c(F)cc(C(=O)O)cc2n1C[C@@H]1CCO1` [Compound 323], the EC50 is less than 50 nM.
In the case of `O=C(O)c1cc(F)c2nc(CN3CCC(Oc4ccnc(COc5ccc(Cl)cc5F)n4)CC3)n(CC3(CF)CC3)c2c1` [Compound 324], the concentration for a half-maximal effect (EC50) was less than 50 nM.
In the case of `N#CCC1(Cn2c(CN3CCC(Oc4ccnc(COc5ccc(F)cc5Cl)n4)CC3)nc3ccc(C(=O)O)cc32)CC1` [Compound 325], the EC50 is less than 50 nM.
Still for that read-out and setting: then `O=C(O)c1cc(F)c2nc(CN3CCC(Oc4ccnc(COc5ccc(F)cc5Cl)n4)CC3)n(CC3(CF)CC3)c2c1` [Compound 327], with less than 50 nM; and `N#Cc1ccc(OCc2nccc(OC3CCN(Cc4nc5c(F)cc(C(=O)O)cc5n4C[C@@H]4CCO4)CC3)n2)c(F)c1` [Compound 328], with less than 50 nM; and `O=C(O)c1cc(F)c2nc(CN3CCC(Oc4ccnc(COc5ccc(F)cc5Cl)n4)CC3)n(C[C@@H]3CCO3)c2c1` [Compound 329], with less than 50 nM.
On the same count and under the same terms, then `N#CCC1(Cn2c(CN3CCC(Oc4ccnc(COc5ccc(C#N)cc5F)n4)CC3)nc3ccc(C(=O)O)cc32)CC1` [Compound 331], with less than 50 nM.
Take `O=C(O)c1ccc2nc(CN3CCC(Oc4ccnc(COc5ccc(Cl)cc5F)c4)CC3)n(CC34CC(CO3)C4)c2c1` [Compound 333]: the 50% effective concentration (EC50) is less than 50 nM.
Turning to `N#CCC1(Cn2c(CN3CCC(Oc4ccnc(COc5ccc(Cl)cc5F)c4)CC3)nc3ccc(C(=O)O)cc32)CC1` [Compound 337], the half-maximal effective concentration (EC50) was less than 50 nM.
On the same count and under the same terms, then `N#CCC1(Cn2c(CN3CCC(Oc4ccnc(COc5ccc(C#N)cc5F)n4)CC3)nc3c(F)cc(C(=O)O)cc32)CC1` [Compound 339], with less than 50 nM; and `N#CCC1(Cn2c(CN3CCC(Oc4ccnc(COc5ccc(Cl)cc5Cl)n4)CC3)nc3ccc(C(=O)O)cc32)CC1` [Compound 340], with less than 50 nM; and `N#CCC1(Cn2c(CN3CCC(Oc4ccnc(COc5ccc(Cl)cc5Cl)n4)CC3)nc3c(F)cc(C(=O)O)cc32)CC1` [Compound 341], with less than 50 nM.
On the same count and under the same terms, with `O=C(O)c1ccc2nc(CN3CCC(Oc4ccnc(COc5ccc(F)cc5C(F)(F)F)n4)CC3)n(C[C@@H]3CCO3)c2c1` [Compound 342] the figure was less than 50 nM.
Same read-out and setting: with `N#Cc1ccc(OCc2nccc(OC3CCN(Cc4nc5ccc(C(=O)O)cc5n4CC4(CF)CC4)CC3)n2)c(F)c1` [Compound 343] the figure was less than 50 nM; with `COCCn1c(CN2CCC(Oc3ccnc(COc4ccc(Cl)cc4F)c3)CC2)nc2c(F)cc(C(=O)O)cc21` [Compound 344], less than 50 nM.
Regarding `O=C(O)c1ccc2nc(CN3CCC(Oc4ccnc(COc5ccc(Cl)cc5F)c4)CC3)n(CC3(O)CC3)c2c1` [Compound 345], the EC50 is less than 50 nM.
On the same count and under the same terms, with `N#Cc1ccc(OCc2nc(OC3CCN(Cc4nc5ccc(C(=O)O)cc5n4C[C@@H]4CCO4)CC3)ccc2F)c(F)c1` [Compound 347] the figure was less than 50 nM.
Still for that read-out and setting: then `N#CCC1(Cn2c(CN3CCC(Oc4ccnc(COc5ccc(F)cc5C#N)n4)CC3)nc3ccc(C(=O)O)cc32)CC1` [Compound 348], with less than 50 nM.
Turning to `N#CCC1(Cn2c(CN3CCC(Oc4ccnc(COc5ccc(F)cc5C#N)n4)CC3)nc3c(F)cc(C(=O)O)cc32)CC1` [Compound 349], the EC50 is less than 50 nM.
As to `O=C(O)c1ccc2nc(CN3CCC(Oc4ccnc(COc5ccc(Cl)cc5)c4)CC3)n(C[C@@H]3CCO3)c2c1` [Compound 352], the concentration for a half-maximal effect (EC50) was less than 50 nM.
Same read-out and setting: with `C[C@H]1C[C@@H](Oc2ccnc(COc3ccc(F)cc3C#N)n2)CCN1Cc1nc2ccc(C(=O)O)cc2n1CC1(CC#N)CC1` [Compound 353] the figure was less than 50 nM; with `COCCC1(Cn2c(CN3CCC(Oc4ccnc(COc5ccc(Cl)cc5F)c4)CC3)nc3ccc(C(=O)O)cc32)CC1` [Compound 354], less than 50 nM; with `O=C(O)c1ccc2nc(CN3CCC(Oc4ccnc(COc5ccc(C(F)(F)F)cc5F)c4)CC3)n(C[C@@H]3CCO3)c2c1` [Compound 356], less than 50 nM.
The same measure, in the same setting: with `O=C(O)c1ccc2nc(CN3CCC(Oc4ccnc(COc5ccc(F)cc5C(F)F)c4)CC3)n(C[C@@H]3CCO3)c2c1` [Compound 357] the figure was less than 50 nM.
For `N#Cc1ccc(OCc2cc(OC3CCN(Cc4nc5ccc(C(=O)O)cc5n4C[C@@H]4CCO4)CC3)ccn2)c(Cl)c1` [Compound 358], the 50% effective concentration (EC50) is less than 50 nM.
The same measure, in the same setting: then `N#Cc1ccc(OCc2cc(OC3CCN(Cc4nc5c(F)cc(C(=O)O)cc5n4C[C@@H]4CCO4)CC3)ccn2)c(Cl)c1` [Compound 359], with less than 50 nM.
Consider `N#CCC1(Cn2c(CN3CCC(Oc4ccnc(COc5ccc(C(F)F)cc5F)c4)CC3)nc3ccc(C(=O)O)cc32)CC1` [Compound 362], for which the 50% effective concentration (EC50) is less than 50 nM.
Take `N#Cc1ccc(OCc2cc(OC3CCN(Cc4nc5c(F)cc(C(=O)O)cc5n4C[C@@H]4CCO4)CC3)ccn2)c(F)c1` [Compound 365]: the EC50 is less than 50 nM.
Same read-out and setting: then `C[C@H]1C[C@@H](Oc2ccnc(COc3ccc(C#N)cc3Cl)c2)CCN1Cc1nc2ccc(C(=O)O)cc2n1C[C@@H]1CCO1` [Compound 366], with less than 50 nM; and `N#Cc1ccc(OCc2nccc(OC3CCN(Cc4nc5ccc(C(=O)O)cc5n4C[C@@H]4CCO4)CC3)n2)c(Cl)c1` [Compound 369], with less than 50 nM; and `O=C(O)c1ccc2nc(CN3CCC(Oc4ccnc(COc5ccc(F)cc5Cl)n4)CC3)n(C[C@@H]3CCO3)c2n1` [Compound 370], with less than 50 nM.
The same measure, in the same setting: with `O=C(O)c1ccc2nc(CN3CCC(Oc4ccnc(COc5ccc(C(F)(F)F)cc5F)n4)CC3)n(C[C@@H]3CCO3)c2n1` [Compound 371] the figure was less than 50 nM; with `N#Cc1ccc(OCc2nccc(OC3CCN(Cc4nc5ccc(C(=O)O)nc5n4C[C@@H]4CCO4)CC3)n2)c(F)c1` [Compound 373], less than 50 nM; with `N#Cc1ccc(OCc2ncc(F)c(OC3CCN(Cc4nc5ccc(C(=O)O)cc5n4C[C@@H]4CCO4)CC3)n2)c(F)c1` [Compound 374], less than 50 nM.
The same measure, in the same setting: with `C[C@H]1C[C@@H](Oc2ccnc(COc3ccc(C#N)cc3F)n2)CCN1Cc1nc2ccc(C(=O)O)nc2n1C[C@@H]1CCO1` [Compound 375] the figure was less than 50 nM.
Consider `C[C@H]1C[C@@H](Oc2ccnc(COc3ccc(C(F)(F)F)cc3F)n2)CCN1Cc1nc2ccc(C(=O)O)cc2n1C[C@@H]1CCO1` [Compound 376], for which the EC50 was less than 50 nM.
Same read-out and setting: with `C[C@H]1C[C@@H](Oc2ccnc(COc3ccc(C(F)(F)F)cc3F)n2)CCN1Cc1nc2ccc(C(=O)O)nc2n1C[C@@H]1CCO1` [Compound 377] the figure was less than 50 nM.
Still for that read-out and setting: with `O=C(O)c1ccc2nc(CN3CCC(Oc4ccnc(COc5ccc(Cl)cc5F)c4)CC3)n(C[C@@H]3CCO3)c2n1` [Compound 378] the figure was less than 50 nM; with `N#Cc1ccc(OCc2cc(OC3CCN(Cc4nc5ccc(C(=O)O)nc5n4C[C@@H]4CCO4)CC3)ccn2)c(F)c1` [Compound 379], less than 50 nM; with `O=C(O)c1ccc2nc(CN3CCC(Oc4cc(COc5ccc(Cl)cc5F)ncc4F)CC3)n(C[C@@H]3CCO3)c2c1` [Compound 380, (S)-2-((4-((2-((4-chloro-2-fluorophenoxy)methyl)-5-fluoropyridin-4-yl)oxy)piperidin-1-yl)methyl)-1-(oxetan-2-ylmethyl)-1H-benzo[d]imidazole-6-carboxylic acid], less than 50 nM.
Same read-out and setting: with `O=C(O)c1ccc2nc(CN3CCC(Oc4ccnc(COc5ccc(C6CC6)cc5F)n4)CC3)n(C[C@@H]3CCO3)c2c1` [Compound 475, 2-{[4-({2-[(4-cyclopropyl-2-fluorophenoxy)methyl]pyrimidin-4-yl}oxy)piperidin-1-yl]methyl}-1-{[(2S)-oxetan-2-yl]methyl}-1H-1,3-benzodiazole-6-carboxylic acid] the figure was less than 50 nM; with `N#Cc1cc(C2CC2)ccc1OCc1nccc(OC2CCN(Cc3nc4ccc(C(=O)O)cc4n3C[C@@H]3CCO3)CC2)n1` [Compound 476, 2-{[4-({2-[(2-cyano-4-cyclopropylphenoxy)methyl]pyrimidin-4-yl}oxy)piperidin-1-yl]methyl}-1-{[(2S)-oxetan-2-yl]methyl}-1H-1,3-benzodiazole-6-carboxylic acid], less than 50 nM; with `C[C@H]1C[C@@H](Oc2ccnc(COc3ccc(C#N)cc3Cl)n2)CCN1Cc1nc2ccc(C(=O)O)cc2n1C[C@@H]1CCO1` [Compound 477, 2-{[(2S,4S)-4-({2-[(2-chloro-4-cyanophenoxy)methyl]pyrimidin-4-yl}oxy)-2-methylpiperidin-1-yl]methyl}-1-{[(2S)-oxetan-2-yl]methyl}-1H-1,3-benzodiazole-6-carboxylic acid], less than 50 nM.
With `N#Cc1ccc(OCc2cc(OC3CCN(Cc4nc5c(F)cc(C(=O)O)cc5n4C[C@@H]4CCO4)CC3)c(F)cn2)c(F)c1` [Compound 478, 2-{[4-({2-[(4-cyano-2-fluorophenoxy)methyl]-5-fluoropyridin-4-yl}oxy)piperidin-1-yl]methyl}-4-fluoro-1-{[(2S)-oxetan-2-yl]methyl}-1H-1,3-benzodiazole-6-carboxylic acid], the EC50 was less than 50 nM.
The same measure, in the same setting: with `O=C(O)c1ccc2nc(CN3CCC(Oc4ccnc(COc5ccc(F)cc5F)n4)CC3)n(C[C@@H]3CCO3)c2c1` [Compound 479, 2-{[4-({2-[(2,4-difluorophenoxy)methyl]pyrimidin-4-yl}oxy)piperidin-1-yl]methyl}-1-{[(2S)-oxetan-2-yl]methyl}-1H-1,3-benzodiazole-6-carboxylic acid] the figure was less than 50 nM; with `N#Cc1cc(Cl)ccc1OCc1nccc(OC2CCN(Cc3nc4ccc(C(=O)O)cc4n3C[C@@H]3CCO3)CC2)n1` [Compound 481, 2-{[4-({2-[(4-chloro-2-cyanophenoxy)methyl]pyrimidin-4-yl}oxy)piperidin-1-yl]methyl}-1-{[(2S)-oxetan-2-yl]methyl}-1H-1,3-benzodiazole-6-carboxylic acid], less than 50 nM.
